According to patent US7595398B2, “N-(5-membered aromatic ring)-amido anti-viral compounds” (SmithKline Beecham Corporation, priority 2005, dated 2009):

System: HCV replicon I389luc-ubi-neo/NS3-3′/ET in ET (Huh-lucubineo-ET) cells; screening for HCV RNA dependent RNA polymerase
Assay: Replicon Assay (luciferase, ET cell line Huh-lucubineo-ET)
Type: cell-based
Conditions: Hepatitis C virus; inhibition of replication relative to no compound control; test concentration of 10 μM according to the fitted equation; luciferase 48-72 hours
Outline: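 Huh-derived ET cells stably carrying an I389luc-ubi-neo/NS3-3′/ET HCV replicon with a luciferase-ubiquitin-neomycin phosphotransferase fusion and adaptive NS3-5B mutations were cultured in DMEM with 10% fetal calf serum and 250 μg/mL G418. Cells were seeded at 0.5-1.0×10^4 cells/well in 96 well plates and given compound after 24 hrs. Luciferase was read 48-72 hours later with Bright-Glo reagents, and replication inhibition was expressed relative to untreated controls.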

Structure (SMILES)	inhibition at 10 µM [%]
O=C(Nc1ncc(Cc2cccc(Cl)c2Cl)s1)[C@@H]1CCCN1C(=O)OCc1ccccc1 [Compound 5012, 2-[5-(2,3-Dichloro-benzyl)-thiazol-2-ylcarbamoyl]-pyrrolidine-1-carboxylic acid benzyl ester]	1.01
O=C(Nc1ccccc1)c1ccc(-c2csc(NC(=O)C3CCCN3C(=O)OCc3ccccc3)n2)cc1 (stereo not shown) [Compound 5109, 2-[4-(4-Phenylcarbamoyl-phenyl)-thiazol-2-ylcarbamoyl]-pyrrolidine-1-carboxylic acid benzyl ester]	100
O=C(Nc1nc(-c2ccc(Br)cc2)cs1)[C@@H]1CCCN1C(=O)OCc1ccccc1 [Compound 5097, 2-[4-(4-Bromo-phenyl)-thiazol-2-ylcarbamoyl]-pyrrolidine-1-carboxylic acid benzyl ester]	43.3
Nc1ccc(-c2csc(NC(=O)C3CCCN3C(=O)OCc3ccccc3)n2)cc1 (stereo not shown) [Compound 5050, 2-[4-(4-Amino-phenyl)-thiazol-2-ylcarbamoyl]-pyrrolidine-1-carboxylic acid benzyl ester]	99.8
O=C(Nc1nc(C2(c3ccccc3)CCCC2)cs1)[C@@H]1CCCN1C(=O)OCc1ccccc1 [Compound 5028, 2-[4-(1-Phenyl-cyclopentyl)-thiazol-2-ylcarbamoyl]-pyrrolidine-1-carboxylic acid benzyl ester]	98.9
O=C(Nc1nc(-c2ccc(-n3nncc3-c3ccccc3)cc2)cs1)[C@@H]1CCCN1C(=O)OCc1ccccc1 [Compound 5104, 2-{4-[4-(5-Phenyl-[1,2,3]triazol-1-yl)-phenyl]-thiazol-2-ylcarbamoyl}-pyrrolidine-1-carboxylic acid benzyl ester]	97.3
O=C(NC1CC1)c1ccc(-c2csc(NC(=O)[C@@H]3CCCN3C(=O)C3(c4ccccc4)CC3)n2)cc1 [Compound 5371, 1-(1-Phenyl-cyclopropanecarbonyl)-pyrrolidine-2-carboxylic acid [4-(4-cyclopropylcarbamoyl-phenyl)-thiazol-2-yl]-amide]	100
O=C(Nc1cccc(-c2csc(NC(=O)C3CCCN3C(=O)OCc3ccccc3)n2)c1)C1CCCC1 (stereo not shown) [Compound 5026, 2-{4-[3-(Cyclopentanecarbonyl-amino)-phenyl]-thiazol-2-ylcarbamoyl}-pyrrolidine-1-carboxylic acid benzyl ester]	100
O=C(NC1CCCNC1)c1ccc(-c2csc(NC(=O)C3CCCN3C(=O)OCc3ccccc3)n2)cc1 (stereo not shown) [Compound 5343, 2-{4-[4-(Piperidin-3-ylcarbamoyl)-phenyl]-thiazol-2-ylcarbamoyl}-pyrrolidine-1-carboxylic acid benzyl ester]	100
O=C(Nc1nc(-c2ccc(NCC3CC3)cc2)cs1)[C@@H]1CCCN1C(=O)OCc1ccccc1 [Compound 5330, 2-{4-[4-(Cyclopropylmethyl-amino)-phenyl]-thiazol-2-ylcarbamoyl}-pyrrolidine-1-carboxylic acid benzyl ester]	98.8
Cc1cccc(Cc2cnc(NC(=O)[C@@H]3CCCN3C(=O)OCc3ccccc3)s2)c1 [Compound 5067, 2-[5-(3-Methyl-benzyl)-thiazol-2-ylcarbamoyl]-pyrrolidine-1-carboxylic acid benzyl ester]	23.9
O=C(Nc1nc(-c2ccc(C(=S)NC3CC3)cc2)cs1)[C@@H]1CCCN1C(=O)OCc1ccccc1 [Compound 5308, 2-[4-(4-Cyclopropylthiocarbamoyl-phenyl)-thiazol-2-ylcarbamoyl]-pyrrolidine-1-carboxylic acid benzyl ester]	100

System: not given
Assay: not given
Conditions: patients treated at currently recommended doses; cited from earlier work

Structure (SMILES)	patients with significant hemolysis
NC(=O)c1ncn([C@@H]2O[C@H](CO)[C@@H](O)[C@H]2O)n1 [Ribavirin]	10-20%
